Experimental data: the NIST ThermoML archive (doi:10.1016/j.jct.2008.05.014)

Assay: xn = mol fraction of the nth substance listed
Settings: Liquid, Pulse-echo method

CCCCCCCCCCCC [dodecane] + CCCCCCC
Settings	speed of sound [m/s]
292.85 K, 15200 kPa, x2 = 0.4999	1334.1
292.85 K, 15200 kPa, x2 = 0.97	1263.4
292.85 K, 30390 kPa, x2 = 0.4999	1411.6
292.85 K, 30390 kPa, x2 = 0.97	1348.3
292.85 K, 45590 kPa, x2 = 0.4999	1480.8
292.85 K, 60790 kPa, x2 = 0.4999	1543.7
292.85 K, 60790 kPa, x2 = 0.97	1490.4
292.85 K, 75990 kPa, x2 = 0.4999	1602.4
292.85 K, 75990 kPa, x2 = 0.97	1552
292.85 K, 91180 kPa, x2 = 0.4999	1656.6
292.85 K, 91180 kPa, x2 = 0.97	1609.5
292.85 K, 101320 kPa, x2 = 0.4999	1690.5
292.86 K, 15200 kPa, x2 = 0.5003	1333.8
292.86 K, 15200 kPa, x2 = 0.9391	1268.7
292.86 K, 30390 kPa, x2 = 0.1014	1449.6
292.86 K, 30390 kPa, x2 = 0.5003	1411.4
292.86 K, 30410 kPa, x2 = 0.9391	1352.9
292.86 K, 45590 kPa, x2 = 0.1014	1516.2
292.86 K, 45590 kPa, x2 = 0.5003	1480.8
292.86 K, 45590 kPa, x2 = 0.9391	1427.3
292.86 K, 45590 kPa, x2 = 0.97	1423.1
292.86 K, 60790 kPa, x2 = 0.1014	1577
292.86 K, 60790 kPa, x2 = 0.5003	1543.8
292.86 K, 60790 kPa, x2 = 0.9391	1494.1
292.86 K, 75990 kPa, x2 = 0.1014	1633.6
292.86 K, 75990 kPa, x2 = 0.5003	1602.5
292.86 K, 75990 kPa, x2 = 0.9391	1555.3
292.86 K, 91180 kPa, x2 = 0.1014	1686.1
292.86 K, 91180 kPa, x2 = 0.5003	1656.8
292.86 K, 91180 kPa, x2 = 0.9391	1612.7
292.86 K, 101320 kPa, x2 = 0.1014	1719.2
292.86 K, 101320 kPa, x2 = 0.9391	1647.3
292.86 K, 101320 kPa, x2 = 0.97	1645.4
292.87 K, 15200 kPa, x2 = 0	1384.9
292.87 K, 15200 kPa, x2 = 0.1014	1375.7
292.87 K, 15200 kPa, x2 = 0.3007	1355.3
292.87 K, 15200 kPa, x2 = 0.7007	1306.2
292.87 K, 30390 kPa, x2 = 0	1457.9
292.87 K, 30390 kPa, x2 = 0.3007	1430.9
292.87 K, 30390 kPa, x2 = 0.7007	1386.2
292.87 K, 45590 kPa, x2 = 0	1524.1
292.87 K, 45590 kPa, x2 = 0.3007	1498.8
292.87 K, 45590 kPa, x2 = 0.7007	1457.9
292.87 K, 60790 kPa, x2 = 0	1584.5
292.87 K, 60790 kPa, x2 = 0.3007	1560.6
292.87 K, 60790 kPa, x2 = 0.7007	1522.8
292.87 K, 75990 kPa, x2 = 0	1640.7
292.87 K, 75990 kPa, x2 = 0.3007	1618.5
292.87 K, 75990 kPa, x2 = 0.7007	1582.4
292.87 K, 91180 kPa, x2 = 0	1692.8
292.87 K, 91180 kPa, x2 = 0.3007	1671.5
292.87 K, 91180 kPa, x2 = 0.7007	1638
292.87 K, 101320 kPa, x2 = 0	1725.8
292.87 K, 101320 kPa, x2 = 0.3007	1705.1
292.87 K, 101320 kPa, x2 = 0.5003	1691
292.87 K, 101320 kPa, x2 = 0.7007	1672.6
292.87 K, 101320 kPa, x2 = 0.8496	1658.6
292.88 K, 15200 kPa, x2 = 0.8496	1284
292.88 K, 75990 kPa, x2 = 0.8496	1566.3
292.89 K, 101 kPa, x2 = 0	1299.5
292.89 K, 101 kPa, x2 = 0.3002	1267.5
292.89 K, 101 kPa, x2 = 0.3996	1255
292.89 K, 101 kPa, x2 = 0.6	1226.8
